Test system: Abutilon theophrasti
Assay: Weeding effect in post-emergence stage
Type: in vivo
Conditions: active ingredient 2000 g/ha, 3 weeks after application, fresh weight control rate
How it was run: (§1)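 Greenhouse-grown weeds at the 2-3 leaf stage, about 2 weeks after sowing, were sprayed with compound at 2000-125 g/ha. The spray solution was made from acetone with Tween 80 and 1.5 L/ha methyl oleate concentrate as synergist. Fresh-weight growth control was scored 3 weeks after treatment.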

Row | Compound | Weeding effect, activity level (growth control rate), Abutilon theophrasti
1 | Cn1nnnc1NC(=O)c1ccnc(-c2ccc(F)cc2)c1F [Compound 1-195] | 5 (Level 5: growth control rate is above 85%)
2 | Cn1nnnc1NC(=O)c1ccnc(-c2cc(Br)ccc2Br)c1Cl [Compound 1-96] | 5 (Level 5: growth control rate is above 85%)
3 | Cn1nnnc1NC(=O)c1ccnc(-c2cc(F)cc(C#N)c2)c1Cl [Compound 1-81] | 5 (Level 5: growth control rate is above 85%)
4 | Cn1nnnc1NC(=O)c1ccnc(-c2ccnc(C#N)n2)c1Cl [Compound 1-165] | 5 (Level 5: growth control rate is above 85%)
5 | Cn1nnnc1NC(=O)c1ccnc(-c2ccc(Cl)cc2)c1Cl [Compound 1-20] | 5 (Level 5: growth control rate is above 85%)
6 | Cn1nnnc1NC(=O)c1ccnc(-c2ccncc2)c1Cl [Compound 1-147] | 5 (Level 5: growth control rate is above 85%)
7 | Cn1nnnc1NC(=O)c1ccnc(-c2cc(F)c(F)c(F)c2)c1Cl [Compound 1-109] | 5 (Level 5: growth control rate is above 85%)
8 | COc1cccc(F)c1-c1nccc(C(=O)Nc2nnnn2C)c1Cl [Compound 1-70] | 5 (Level 5: growth control rate is above 85%)
9 | Cn1nnnc1NC(=O)c1ccnc(-c2ccncc2F)c1Cl [Compound 1-150] | 5 (Level 5: growth control rate is above 85%)
10 | Cn1nnnc1NC(=O)c1ccnc(-c2ccc(OCc3ccccc3)cc2F)c1Cl [Compound 1-106] | 5 (Level 5: growth control rate is above 85%)
11 | Cn1nnnc1NC(=O)c1ccnc(-c2cccc(Cl)c2)c1Cl [Compound 1-19] | 5 (Level 5: growth control rate is above 85%)
12 | Cc1cc(F)ncc1-c1nccc(C(=O)Nc2nnnn2C)c1Cl [Compound 1-136] | 5 (Level 5: growth control rate is above 85%)
13 | COc1ccccc1-c1nccc(C(=O)Nc2nnnn2C)c1Cl [Compound 1-28] | 5 (Level 5: growth control rate is above 85%)
14 | COc1ccc(-c2nccc(C(=O)Nc3nnnn3C)c2Cl)cc1 [Compound 1-30] | 5 (Level 5: growth control rate is above 85%)
15 | Cn1nnnc1NC(=O)c1ccnc(-c2ccc(F)cc2)c1SCCl [Compound 1-211] | 5 (Level 5: growth control rate is above 85%)
16 | Cn1nnnc1NC(=O)c1ccnc(-c2ccnn2C2CCCCO2)c1Cl (stereo not shown) [Compound 1-182] | 5 (Level 5: growth control rate is above 85%)
17 | Cc1csc(-c2nccc(C(=O)Nc3nnnn3C)c2Cl)c1 [Compound 1-188] | 5 (Level 5: growth control rate is above 85%)
18 | Cn1nnnc1NC(=O)c1ccnc(-c2ccc(-c3ccccc3)cc2)c1Cl [Compound 1-53] | 5 (Level 5: growth control rate is above 85%)
19 | CCc1ccccc1-c1nccc(C(=O)Nc2nnnn2C)c1Cl [Compound 1-12] | 5 (Level 5: growth control rate is above 85%)
20 | Cn1nnnc1NC(=O)c1ccnc(-c2ccc(F)cc2F)c1Cl [Compound 1-64] | 5 (Level 5: growth control rate is above 85%)
21 | Cn1nnnc1NC(=O)c1ccnc(-c2cccc(S(C)(=O)=O)c2)c1Cl [Compound 1-44] | 5 (Level 5: growth control rate is above 85%)
22 | Cn1nnnc1NC(=O)c1ccnc(-c2ccc3c(c2)sc2ccccc23)c1Cl [Compound 1-118] | 5 (Level 5: growth control rate is above 85%)

Test system: Descurainia sophia
Assay: Weeding effect in post-emergence stage
Type: in vivo
Conditions: active ingredient 2000 g/ha, 3 weeks after application, fresh weight control rate
How it was run: as §1

Row | Compound | Weeding effect, activity level (growth control rate), Descurainia sophia
23 | Cn1nnnc1NC(=O)c1ccnc(-c2ccc(F)cc2)c1F [Compound 1-195] | 5 (Level 5: growth control rate is above 85%)
24 | Cn1nnnc1NC(=O)c1ccnc(-c2cc(Br)ccc2Br)c1Cl [Compound 1-96] | 5 (Level 5: growth control rate is above 85%)
25 | Cn1nnnc1NC(=O)c1ccnc(-c2cc(F)cc(C#N)c2)c1Cl [Compound 1-81] | 5 (Level 5: growth control rate is above 85%)
26 | Cn1nnnc1NC(=O)c1ccnc(-c2ccnc(C#N)n2)c1Cl [Compound 1-165] | 5 (Level 5: growth control rate is above 85%)
27 | Cn1nnnc1NC(=O)c1ccnc(-c2ccc(Cl)cc2)c1Cl [Compound 1-20] | 5 (Level 5: growth control rate is above 85%)
28 | Cn1nnnc1NC(=O)c1ccnc(-c2ccncc2)c1Cl [Compound 1-147] | 5 (Level 5: growth control rate is above 85%)
29 | Cn1nnnc1NC(=O)c1ccnc(-c2cc(F)c(F)c(F)c2)c1Cl [Compound 1-109] | 5 (Level 5: growth control rate is above 85%)
30 | COc1cccc(F)c1-c1nccc(C(=O)Nc2nnnn2C)c1Cl [Compound 1-70] | 5 (Level 5: growth control rate is above 85%)
31 | Cn1nnnc1NC(=O)c1ccnc(-c2ccncc2F)c1Cl [Compound 1-150] | 5 (Level 5: growth control rate is above 85%)
32 | Cn1nnnc1NC(=O)c1ccnc(-c2ccc(OCc3ccccc3)cc2F)c1Cl [Compound 1-106] | 5 (Level 5: growth control rate is above 85%)
33 | Cn1nnnc1NC(=O)c1ccnc(-c2cccc(Cl)c2)c1Cl [Compound 1-19] | 5 (Level 5: growth control rate is above 85%)
34 | Cc1cc(F)ncc1-c1nccc(C(=O)Nc2nnnn2C)c1Cl [Compound 1-136] | 5 (Level 5: growth control rate is above 85%)
35 | COc1ccccc1-c1nccc(C(=O)Nc2nnnn2C)c1Cl [Compound 1-28] | 5 (Level 5: growth control rate is above 85%)
36 | COc1ccc(-c2nccc(C(=O)Nc3nnnn3C)c2Cl)cc1 [Compound 1-30] | 5 (Level 5: growth control rate is above 85%)
37 | Cn1nnnc1NC(=O)c1ccnc(-c2ccc(F)cc2)c1SCCl [Compound 1-211] | 5 (Level 5: growth control rate is above 85%)
38 | Cn1nnnc1NC(=O)c1ccnc(-c2ccnn2C2CCCCO2)c1Cl (stereo not shown) [Compound 1-182] | 5 (Level 5: growth control rate is above 85%)
39 | Cc1csc(-c2nccc(C(=O)Nc3nnnn3C)c2Cl)c1 [Compound 1-188] | 5 (Level 5: growth control rate is above 85%)
40 | Cn1nnnc1NC(=O)c1ccnc(-c2ccc(-c3ccccc3)cc2)c1Cl [Compound 1-53] | 5 (Level 5: growth control rate is above 85%)
41 | CCc1ccccc1-c1nccc(C(=O)Nc2nnnn2C)c1Cl [Compound 1-12] | 5 (Level 5: growth control rate is above 85%)
42 | Cn1nnnc1NC(=O)c1ccnc(-c2ccc(F)cc2F)c1Cl [Compound 1-64] | 5 (Level 5: growth control rate is above 85%)
43 | Cn1nnnc1NC(=O)c1ccnc(-c2cccc(S(C)(=O)=O)c2)c1Cl [Compound 1-44] | 5 (Level 5: growth control rate is above 85%)
44 | Cn1nnnc1NC(=O)c1ccnc(-c2ccc3c(c2)sc2ccccc23)c1Cl [Compound 1-118] | 5 (Level 5: growth control rate is above 85%)

Test system: Chenopodium album
Assay: Weeding effect in post-emergence stage
Type: in vivo
Conditions: active ingredient 2000 g/ha, 3 weeks after application, fresh weight control rate
How it was run: as §1

Row | Compound | Weeding effect, activity level (growth control rate), Chenopodium album
45 | Cn1nnnc1NC(=O)c1ccnc(-c2ccc(F)cc2)c1F [Compound 1-195] | 5 (Level 5: growth control rate is above 85%)
46 | Cn1nnnc1NC(=O)c1ccnc(-c2cc(Br)ccc2Br)c1Cl [Compound 1-96] | 5 (Level 5: growth control rate is above 85%)
47 | Cn1nnnc1NC(=O)c1ccnc(-c2cc(F)cc(C#N)c2)c1Cl [Compound 1-81] | 5 (Level 5: growth control rate is above 85%)
48 | Cn1nnnc1NC(=O)c1ccnc(-c2ccnc(C#N)n2)c1Cl [Compound 1-165] | 5 (Level 5: growth control rate is above 85%)
49 | Cn1nnnc1NC(=O)c1ccnc(-c2ccc(Cl)cc2)c1Cl [Compound 1-20] | 5 (Level 5: growth control rate is above 85%)
50 | Cn1nnnc1NC(=O)c1ccnc(-c2ccncc2)c1Cl [Compound 1-147] | 5 (Level 5: growth control rate is above 85%)
51 | Cn1nnnc1NC(=O)c1ccnc(-c2cc(F)c(F)c(F)c2)c1Cl [Compound 1-109] | 5 (Level 5: growth control rate is above 85%)
52 | COc1cccc(F)c1-c1nccc(C(=O)Nc2nnnn2C)c1Cl [Compound 1-70] | 5 (Level 5: growth control rate is above 85%)
53 | Cn1nnnc1NC(=O)c1ccnc(-c2ccncc2F)c1Cl [Compound 1-150] | 5 (Level 5: growth control rate is above 85%)
54 | Cn1nnnc1NC(=O)c1ccnc(-c2ccc(OCc3ccccc3)cc2F)c1Cl [Compound 1-106] | 5 (Level 5: growth control rate is above 85%)
55 | Cn1nnnc1NC(=O)c1ccnc(-c2cccc(Cl)c2)c1Cl [Compound 1-19] | 5 (Level 5: growth control rate is above 85%)
56 | Cc1cc(F)ncc1-c1nccc(C(=O)Nc2nnnn2C)c1Cl [Compound 1-136] | 5 (Level 5: growth control rate is above 85%)
57 | COc1ccccc1-c1nccc(C(=O)Nc2nnnn2C)c1Cl [Compound 1-28] | 5 (Level 5: growth control rate is above 85%)
58 | COc1ccc(-c2nccc(C(=O)Nc3nnnn3C)c2Cl)cc1 [Compound 1-30] | 5 (Level 5: growth control rate is above 85%)
59 | Cn1nnnc1NC(=O)c1ccnc(-c2ccc(F)cc2)c1SCCl [Compound 1-211] | 5 (Level 5: growth control rate is above 85%)
60 | Cn1nnnc1NC(=O)c1ccnc(-c2ccnn2C2CCCCO2)c1Cl (stereo not shown) [Compound 1-182] | 5 (Level 5: growth control rate is above 85%)
61 | Cc1csc(-c2nccc(C(=O)Nc3nnnn3C)c2Cl)c1 [Compound 1-188] | 5 (Level 5: growth control rate is above 85%)
62 | Cn1nnnc1NC(=O)c1ccnc(-c2ccc(-c3ccccc3)cc2)c1Cl [Compound 1-53] | 5 (Level 5: growth control rate is above 85%)
63 | CCc1ccccc1-c1nccc(C(=O)Nc2nnnn2C)c1Cl [Compound 1-12] | 5 (Level 5: growth control rate is above 85%)
64 | Cn1nnnc1NC(=O)c1ccnc(-c2ccc(F)cc2F)c1Cl [Compound 1-64] | 5 (Level 5: growth control rate is above 85%)
65 | Cn1nnnc1NC(=O)c1ccnc(-c2cccc(S(C)(=O)=O)c2)c1Cl [Compound 1-44] | 5 (Level 5: growth control rate is above 85%)
66 | Cn1nnnc1NC(=O)c1ccnc(-c2ccc3c(c2)sc2ccccc23)c1Cl [Compound 1-118] | 5 (Level 5: growth control rate is above 85%)

Test system: Amaranthus retroflexus L.
Assay: Weeding effect in post-emergence stage
Type: in vivo
Conditions: active ingredient 2000 g/ha, 3 weeks after application, fresh weight control rate
How it was run: as §1

Row | Compound | Weeding effect, activity level (growth control rate), Amaranthus retroflexus L.
67 | Cn1nnnc1NC(=O)c1ccnc(-c2ccc(F)cc2)c1F [Compound 1-195] | 5 (Level 5: growth control rate is above 85%)
68 | Cn1nnnc1NC(=O)c1ccnc(-c2cc(Br)ccc2Br)c1Cl [Compound 1-96] | 5 (Level 5: growth control rate is above 85%)
69 | Cn1nnnc1NC(=O)c1ccnc(-c2cc(F)cc(C#N)c2)c1Cl [Compound 1-81] | 5 (Level 5: growth control rate is above 85%)
70 | Cn1nnnc1NC(=O)c1ccnc(-c2ccnc(C#N)n2)c1Cl [Compound 1-165] | 5 (Level 5: growth control rate is above 85%)
71 | Cn1nnnc1NC(=O)c1ccnc(-c2ccc(Cl)cc2)c1Cl [Compound 1-20] | 5 (Level 5: growth control rate is above 85%)
72 | Cn1nnnc1NC(=O)c1ccnc(-c2ccncc2)c1Cl [Compound 1-147] | 5 (Level 5: growth control rate is above 85%)
73 | Cn1nnnc1NC(=O)c1ccnc(-c2cc(F)c(F)c(F)c2)c1Cl [Compound 1-109] | 5 (Level 5: growth control rate is above 85%)
74 | COc1cccc(F)c1-c1nccc(C(=O)Nc2nnnn2C)c1Cl [Compound 1-70] | 5 (Level 5: growth control rate is above 85%)
75 | Cn1nnnc1NC(=O)c1ccnc(-c2ccncc2F)c1Cl [Compound 1-150] | 5 (Level 5: growth control rate is above 85%)
76 | Cn1nnnc1NC(=O)c1ccnc(-c2ccc(OCc3ccccc3)cc2F)c1Cl [Compound 1-106] | 5 (Level 5: growth control rate is above 85%)
77 | Cn1nnnc1NC(=O)c1ccnc(-c2cccc(Cl)c2)c1Cl [Compound 1-19] | 5 (Level 5: growth control rate is above 85%)
78 | Cc1cc(F)ncc1-c1nccc(C(=O)Nc2nnnn2C)c1Cl [Compound 1-136] | 5 (Level 5: growth control rate is above 85%)
79 | COc1ccccc1-c1nccc(C(=O)Nc2nnnn2C)c1Cl [Compound 1-28] | 5 (Level 5: growth control rate is above 85%)
80 | COc1ccc(-c2nccc(C(=O)Nc3nnnn3C)c2Cl)cc1 [Compound 1-30] | 5 (Level 5: growth control rate is above 85%)
81 | Cn1nnnc1NC(=O)c1ccnc(-c2ccc(F)cc2)c1SCCl [Compound 1-211] | 5 (Level 5: growth control rate is above 85%)
82 | Cn1nnnc1NC(=O)c1ccnc(-c2ccnn2C2CCCCO2)c1Cl (stereo not shown) [Compound 1-182] | 5 (Level 5: growth control rate is above 85%)
83 | Cc1csc(-c2nccc(C(=O)Nc3nnnn3C)c2Cl)c1 [Compound 1-188] | 5 (Level 5: growth control rate is above 85%)
84 | Cn1nnnc1NC(=O)c1ccnc(-c2ccc(-c3ccccc3)cc2)c1Cl [Compound 1-53] | 5 (Level 5: growth control rate is above 85%)
85 | CCc1ccccc1-c1nccc(C(=O)Nc2nnnn2C)c1Cl [Compound 1-12] | 5 (Level 5: growth control rate is above 85%)
86 | Cn1nnnc1NC(=O)c1ccnc(-c2ccc(F)cc2F)c1Cl [Compound 1-64] | 5 (Level 5: growth control rate is above 85%)
87 | Cn1nnnc1NC(=O)c1ccnc(-c2cccc(S(C)(=O)=O)c2)c1Cl [Compound 1-44] | 5 (Level 5: growth control rate is above 85%)
88 | Cn1nnnc1NC(=O)c1ccnc(-c2ccc3c(c2)sc2ccccc23)c1Cl [Compound 1-118] | 5 (Level 5: growth control rate is above 85%)
